Where two headings read alike, the source gives them in different places.
What was measured:
[1] = biological target: human recombinant dopamine D2 receptor (Homo sapiens (Human), UniProt P14416); assay: Test of binding inhibition for dopamine D2 receptor ([3H]-Methylspiperone SPA); conditions: Jump-In HEK cell membranes, read-out: hD2_Ki
Procedure: (§1) (Experimental Conditions)
Cell membranes: Jump-In HEK cell membranes expressing human recombinant dopamine D2 receptor (2 μg/well)
(§2) Non-specific ligand: (final concentration) 10 μM Butaclamol [(+)-Butaclamol Hydrochloride, D033, Sigma]
(§3) SPA beads solution: SPA beads [WGA PVT SPA Scintillation Beads, RPNQ0001 (500 mg), RPNQ0060 (2 g), PerkinElmer] (0.2 mg/well)
(§4) Incubation time and temperature: 120 min at 25° C.
(§5) Butaclamol or the compounds of the present invention were weighed and DMSO was added to make a 10 mM solution. This solution was diluted to each concentration.
(§6) SPA beads were weighed and stirred in water to make a 50 mg/mL solution. Using this solution, a mixture with the cell membranes was prepared.
Jump-In HEK Cell membranes (final reaction amount: 2 μg protein/well), the SPA beads solution (final reaction amount: 0.2 mg/well) and the buffer solution were mixed, and the mixed solution was left still for 1 hour or more at 4° C. Then, 50 μL of the mixture was added to each well of the plate. […] Non-specific binding was calculated based on the radioactivity of [^3H]-Methylspiperone in the presence of 10 μM non-labeled Butaclamol. The total binding was calculated using the radioactivity of [^3H]-Methylspiperone in the absence of the compounds of the present invention (Vehicle). The Ki values were calculated from dose-response curves.
(§7) Binding activities of the compounds of the present invention were calculated from the following Binding Inhibition Rate (%): Inhibition Rate (%)=[1−(c−a)/(b−a)]×100 • a: Average cpm of non-specific binding • b: Average cpm of total binding • c: Cpm in the presence of each test compound

[2] = biological target: human recombinant dopamine D3 receptor (Homo sapiens (Human), UniProt P35462); assay: Test of binding inhibition for dopamine D3 receptor ([3H]-Methylspiperone SPA); conditions: Jump-In HEK cell membranes, 2 nM [3H]-Methylspiperone, 120 min at 25° C.; read-out: hD3_Ki
Procedure: as §1
Cell membranes: Jump-In HEK cell membranes expressing human recombinant dopamine D3 receptor (4 μg/well)
as §2, §3, §4, §5
[^3H]-Methylspiperone was weighed and the buffer solution was added to make a 6 nM solution.
as §6
Jump-In HEK Cell membranes (final reaction amount: 4 μg protein/well), the SPA beads solution (final reaction amount: 0.2 mg/well) and the buffer solution were mixed and the mixed solution was left still for 1 hour or more at 4° C. Then, 50 μL of the mixture was added to each well of the plate. In addition, 25 μL of 6 nM [^3H]-Methylspiperone (final concentration: 2 nM) was added to each well. […] Non-specific binding was calculated based on the radioactivity of [^3H]-Methylspiperone in the presence of 10 μM non-labeled Butaclamol. The total binding was calculated using the radioactivity of [H]-Methylspiperone in the absence of the compounds of the present invention (vehicle). The Ki values were calculated from dose-response curves.
as §7

hERG channel (IKr) = hERG channel (IKr) (Homo sapiens (Human), UniProt Q12809); assay: hERG test (whole cell patch clamp, IKr); assay type: cell-based; conditions: human, CHO cells expressing hERG channel, pH 7.4, 3 μM, tail peak current
Excerpt: Test Example 10: hERG Test
For the purpose of assessing risk of an electrocardiogram QT interval prolongation of the compound of the present invention, effects of the compound of the present invention on delayed rectifier K+ current (IKr), which plays an important role in the ventricular repolarization process, was studied using CHO cells expressing human ether-a-go-go related gene (hERG) channel.
After a cell was retained at a membrane potential of −80 mV by whole cell patch clamp method using an automated patch clamp system (QPatch; Sophion Bioscience A/S) and gave a leak potential of −50 mV, IKr induced by depolarization pulse stimulation at +20 mV for 2 seconds and, further, repolarization pulse stimulation at −50 mV for 2 seconds, was recorded. After the generated current was stabilized, extracellular solution (NaCl: 145 mmol/L, KCl: 4 mmol/L, CaCl2): 2 mmol/L, MgCl2: 1 mmol/L, glucose: 10 mmol/L, HEPES (4-(2-hydroxyethyl)-1-piperazineethanesulfonic acid): 10 mmol/L, pH=7.4), in which the compound of the present invention had been dissolved at an objective concentration in the extracellular solution, was applied to the cell at room temperature for 7 minutes or more. From the recording IKr, an absolute value of the tail peak current was measured based on the current value at the resting membrane potential using analysis software (QPatch Assay software; Sophion Bioscience A/S). Further, the % inhibition of tail peak current for the compound of the present invention relative to the tail peak current after application of the solution (0.1% dimethyl sulfoxide solution) was calculated to assess influence of the compound of the present invention on IKr.

[3] = 1.2 nM [3H]-Methylspiperone, 120 min at 25° C.

Chain of human recombinant dopamine D2 receptor (P14416 whole entry): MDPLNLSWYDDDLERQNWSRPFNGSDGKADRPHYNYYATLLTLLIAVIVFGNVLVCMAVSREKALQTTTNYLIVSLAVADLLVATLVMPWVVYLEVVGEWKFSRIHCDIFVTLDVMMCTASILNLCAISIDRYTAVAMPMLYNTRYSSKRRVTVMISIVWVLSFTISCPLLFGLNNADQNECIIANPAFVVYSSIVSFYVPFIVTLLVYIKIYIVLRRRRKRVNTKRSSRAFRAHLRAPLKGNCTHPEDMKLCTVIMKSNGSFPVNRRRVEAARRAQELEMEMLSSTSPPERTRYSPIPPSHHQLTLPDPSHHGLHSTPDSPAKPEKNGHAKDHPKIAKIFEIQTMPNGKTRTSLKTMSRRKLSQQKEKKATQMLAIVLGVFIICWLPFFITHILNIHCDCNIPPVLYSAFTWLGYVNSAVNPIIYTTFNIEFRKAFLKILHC
Chain of hERG channel (IKr) (Q12809 whole entry): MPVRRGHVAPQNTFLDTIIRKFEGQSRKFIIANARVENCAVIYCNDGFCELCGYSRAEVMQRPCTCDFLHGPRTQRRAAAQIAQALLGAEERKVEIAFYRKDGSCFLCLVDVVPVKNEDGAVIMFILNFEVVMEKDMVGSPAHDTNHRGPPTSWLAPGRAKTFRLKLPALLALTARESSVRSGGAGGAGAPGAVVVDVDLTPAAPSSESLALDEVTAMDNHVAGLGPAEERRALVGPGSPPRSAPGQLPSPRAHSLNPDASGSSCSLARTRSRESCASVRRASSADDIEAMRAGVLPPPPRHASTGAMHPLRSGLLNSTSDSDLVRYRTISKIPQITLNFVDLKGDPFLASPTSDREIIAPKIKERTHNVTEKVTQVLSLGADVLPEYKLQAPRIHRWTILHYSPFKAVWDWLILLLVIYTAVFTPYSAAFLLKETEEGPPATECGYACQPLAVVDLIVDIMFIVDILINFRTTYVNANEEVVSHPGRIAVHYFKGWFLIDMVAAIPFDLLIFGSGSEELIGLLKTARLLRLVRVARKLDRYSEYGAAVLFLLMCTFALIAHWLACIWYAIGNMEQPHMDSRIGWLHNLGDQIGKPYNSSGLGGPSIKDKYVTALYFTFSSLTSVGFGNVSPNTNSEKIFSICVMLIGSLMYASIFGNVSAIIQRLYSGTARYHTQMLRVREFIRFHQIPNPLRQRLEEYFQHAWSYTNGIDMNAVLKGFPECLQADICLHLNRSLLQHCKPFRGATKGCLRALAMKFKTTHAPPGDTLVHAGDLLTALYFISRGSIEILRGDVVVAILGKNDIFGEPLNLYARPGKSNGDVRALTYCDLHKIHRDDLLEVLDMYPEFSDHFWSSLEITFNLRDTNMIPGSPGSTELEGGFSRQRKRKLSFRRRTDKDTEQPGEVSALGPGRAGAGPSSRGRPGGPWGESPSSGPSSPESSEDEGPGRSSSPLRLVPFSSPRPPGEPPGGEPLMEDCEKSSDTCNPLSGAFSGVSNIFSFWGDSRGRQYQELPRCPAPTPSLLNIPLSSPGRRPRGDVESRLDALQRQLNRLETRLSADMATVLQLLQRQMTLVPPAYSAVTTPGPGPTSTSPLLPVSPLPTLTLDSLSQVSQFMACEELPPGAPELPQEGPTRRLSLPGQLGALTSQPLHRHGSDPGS
Chain of human recombinant dopamine D3 receptor (P35462 whole entry): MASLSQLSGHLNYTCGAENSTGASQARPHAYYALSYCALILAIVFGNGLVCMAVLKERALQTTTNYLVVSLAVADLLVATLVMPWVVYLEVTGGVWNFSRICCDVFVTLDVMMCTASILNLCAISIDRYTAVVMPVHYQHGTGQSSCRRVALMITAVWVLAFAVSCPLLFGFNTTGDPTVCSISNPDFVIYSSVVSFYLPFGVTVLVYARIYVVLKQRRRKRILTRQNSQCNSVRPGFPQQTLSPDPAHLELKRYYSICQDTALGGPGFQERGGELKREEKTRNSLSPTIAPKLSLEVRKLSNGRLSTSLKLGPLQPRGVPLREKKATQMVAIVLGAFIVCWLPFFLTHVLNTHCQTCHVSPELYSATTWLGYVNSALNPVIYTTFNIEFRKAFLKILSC

Compound | Ki [1, 3] | Ki [2] | inhibition at 3 µM (hERG channel (IKr)) | Ki ([1]; [3H]-Methylspiperone 1.2 nM)
Cc1nc(CC(=O)N[C@H]2CC[C@](F)(CCN3CCc4ccc(OCC(F)F)nc4CC3)CC2)no1 [Example I-024] | > 2200 nM | 0.2 nM | 18.7% | 
Cc1nnc(CC(=O)N[C@H]2CC[C@](F)(CCN3CCc4ccc(OCC(C)(F)F)nc4CC3)CC2)s1 [Example I-018] | 190 nM | 0.035 nM | 33.8% | 
Cc1nc(CC(=O)N[C@H]2CC[C@H](CCN3CCc4nc(OCC(F)(F)F)sc4CC3)CC2)n(C)n1 [Example I-107] | 1000 nM | 0.54 nM | 3.75% | 
Cn1cc2c(C(=O)NN3CCC(F)(CCN4CCc5sc(OCC(F)(F)F)nc5C4)CC3)cccc2n1 [Example I-028] | 640 nM | 0.41 nM | 9.09% | 
Cc1ncc(CC(=O)N[C@H]2CC[C@H](CCN3CCc4sc(OC5CC(F)(F)C5)nc4C3)CC2)o1 [Example I-002] |  | 0.47 nM | 30.3% | 
Cc1cc(CC(=O)N[C@H]2CC[C@H](CCN3CCc4nc(OCC(C)(F)F)sc4CC3)CC2)on1 [Example I-052] | 1700 nM | 0.083 nM |  | 
Cc1nc(CC(=O)N[C@H]2CC[C@](F)(CCN3CCc4nc(OCC(F)(F)F)sc4CC3)CC2)nn1C [I′-50] |  | 0.23 nM |  | 1600 nM
Cc1nnc(CC(=O)N[C@H]2CC[C@H](CCN3CCc4nc(O[C@H](C)C(F)(F)F)sc4CC3)CC2)s1 [Example I-125] | 1100 nM | 0.61 nM |  | 
Cc1ncc(OCC(=O)N[C@H]2CC[C@H](CCN3CCc4ccc(O[C@H](C)C(F)(F)F)nc4CC3)CC2)cn1 [Example I-127] | 410 nM | 0.12 nM |  | 
CC(C)Oc1ccc2c(n1)CCN(CC[C@H]1CC[C@H](NC(=O)c3cnn4ccccc34)CC1)CC2 [Example I-062] | 1100 nM | 1 nM |  | 
Cc1ncc(OCC(=O)N[C@H]2CC[C@](F)(CCN3CCc4ccc(OCC(C)(F)F)nc4CC3)CC2)cn1 [I′-46] |  | 0.33 nM |  | 260 nM
Cn1cc2ccc(C(=O)N[C@H]3CC[C@H](CCN4CCc5nc(OCC(C)(F)F)sc5CC4)CC3)cc2n1 [Example I-050] | > 1800 nM | 0.16 nM |  | 
Cn1cc(CC(=O)N[C@H]2CC[C@](F)(CCN3CCc4nc(OCC(F)(F)F)sc4CC3)CC2)c(F)n1 [I′-25] |  | 0.29 nM |  | 730 nM
Cc1nc(CC(=O)N[C@H]2CC[C@H](CCN3CCc4sc(C5CC(F)(F)C5)nc4C3)CC2)no1 [Example I-070] | 780 nM | 0.17 nM |  | 
Cc1cc2c(C(=O)N[C@H]3CC[C@](F)(CCN4CCc5nc(OCC(F)F)sc5CC4)CC3)cccn2n1 [Example I-058] | > 1700 nM | 0.47 nM |  | 
C[C@@H](Oc1ccc2c(n1)CCN(CC[C@H]1CC[C@H](NC(=O)Cc3cnn(C)n3)CC1)CC2)C(F)(F)F [Example I-128] | 510 nM | 0.073 nM |  | 
Cc1cc(CC(=O)N[C@H]2CC[C@H](CCN3CCc4ccc(CCC(F)(F)F)nc4CC3)CC2)on1 [I′-17] |  | 0.15 nM |  | > 2300 nM
Cc1nnc(CC(=O)N[C@H]2CC[C@H](CCN3CCc4ccc(CCC(F)(F)F)nc4CC3)CC2)o1 [I′-3] |  | 0.18 nM |  | 1100 nM
Cc1ncc(CC(=O)N[C@H]2CC[C@H](CCN3CCc4nc(OCC(F)(F)F)sc4CC3)CC2)cn1 [Example I-110] | 460 nM | 0.17 nM |  | 
Cc1ncccc1C(=O)NC12CCC(CCN3CCc4nc(OCC(F)(F)F)sc4CC3)(CC1)CC2 [II-7] |  | 0.39 nM |  | 1700 nM
Cc1cnc(CC(=O)N[C@H]2CC[C@](F)(CCN3CCc4ccc(CCC(F)(F)F)nc4CC3)CC2)o1 [Example I-141] | > 2300 nM | 0.41 nM |  | 

Compound | Ki [1, 3] | Ki [2] | inhibition at 3 µM (hERG channel (IKr)) | Ki ([1]; [3H]-Methylspiperone 1.2 nM)
Cc1nnc(CC(=O)N[C@H]2CC[C@H](CCN3CCc4ccc(O[C@@H](C)C(F)(F)F)nc4CC3)CC2)o1 [III-7] | 290 nM | 0.09 nM |  | 
Cc1ncccc1C(=O)N[C@H]1CC[C@H](CCN2CCc3ccc(OCC(F)F)nc3CC2)CC1 [Example I-091] | 940 nM | 0.28 nM |  | 
Cn1ncc(CC(=O)N[C@H]2CC[C@H](CCN3CCc4ccc(OCC(F)F)nc4CC3)CC2)c1F [I′-33] |  | 0.85 nM |  | 1600 nM
Cn1cc(CC(=O)N[C@H]2CC[C@H](CCN3CCc4ccc(CCC(F)(F)F)nc4CC3)CC2)cn1 [I′-4] |  | 0.22 nM |  | 1200 nM
O=C(N[C@H]1CC[C@](F)(CCN2CCc3nc(OCC(F)F)sc3CC2)CC1)c1cccnc1C(F)F [Example I-160] | 1100 nM | 0.83 nM |  | 
Cc1ncc(CC(=O)N[C@H]2CC[C@H](CCN3CCc4nc(OCC(C)(F)F)sc4CC3)CC2)cn1 [I′-55] |  | 0.16 nM |  | 950 nM
Cc1ncc(OCC(=O)N[C@H]2CC[C@H](CCN3CCc4nc(OCC(C)(F)F)sc4CC3)OC2)cn1 [Example I-068] | 870 nM | 0.47 nM |  | 
C[C@@H](Oc1ccc2c(n1)CCN(CC[C@H]1CC[C@H](NC(=O)c3cccc(=O)n3C)CC1)CC2)C(F)(F)F [Example I-132] | 300 nM | 0.12 nM |  | 
Cc1ncc(/C=C/C(=O)N[C@H]2CC[C@H](CCN3CCc4sc(C5CC(F)(F)C5)nc4C3)CC2)cn1 [I′-45] |  | 0.11 nM |  | 210 nM
Cc1ncc(CC(=O)NC2CC3CCC(C2)N3CCN2CCc3sc(OCC(F)(F)F)nc3C2)s1 (single isomer, unassigned) [Example I-134] | 300 nM | 0.17 nM |  | 
Cc1ncc(OCC(=O)N[C@H]2CC[C@H](CCN3CCc4ccc(CCC(F)(F)F)nc4CC3)CC2)cn1 [I′-7] |  | 0.12 nM |  | 1100 nM
Cc1cnc(CC(=O)NC23CCC(CCN4CCc5ccc(OCC(C)(F)F)nc5CC4)(CC2)CC3)o1 [II-14] |  | 0.23 nM |  | 760 nM
Cc1nnc(CC(=O)N[C@H]2CC[C@H](CCN3CCc4ccc(O[C@H](C)C(F)(F)F)nc4CC3)CC2)s1 [Example I-129] | 290 nM | 0.085 nM |  | 
Cn1ccc2c(C(=O)N[C@H]3CC[C@H](CCN4CCc5nc(OCC(C)(F)F)sc5CC4)CC3)cccc2c1=O [Example I-055] | > 1800 nM | 0.19 nM |  | 
Cc1cnc(OCC(=O)N[C@H]2CC[C@H](CCN3CCc4ccc(CCC(F)(F)F)nc4CC3)CC2)cn1 [I′-13] |  | 0.43 nM |  | 910 nM
Cc1cc(CC(=O)N[C@H]2CC[C@H](CCN3CCc4ccc(OCC(F)F)nc4CC3)CC2)no1 [Example I-094] | 910 nM | 0.3 nM |  | 
Cc1cc(OCC(=O)N[C@H]2CC[C@](F)(CCN3CCc4ccc(OCC(F)F)nc4CC3)CC2)no1 [Example I-084] | > 2200 nM | 0.25 nM |  | 
Cc1nc(CC(=O)N[C@H]2CC[C@](F)(CCN3CCc4ccc(OCC(C)(F)F)nc4CC3)CC2)no1 [Example I-078] | > 1800 nM | 0.13 nM |  | 
O=C(N[C@H]1CC[C@H](CCN2CCc3ccc(OCC(F)F)nc3CC2)CC1)c1cccnc1C(F)F [Example I-121] | 650 nM | 0.26 nM |  | 
Cc1ncc(CC(=O)N[C@H]2CC[C@H](CCN3CCc4nc(OCC(F)F)sc4CC3)CC2)cn1 [I′-56] |  | 0.3 nM |  | 1400 nM

Reference: US11578084B2, “Condensed ring compounds having dopamine D3 receptor antagonistic effect” (Shionogi & Co., Ltd., priority 2018, dated 2023)
